Source: PubChem BioAssay (NCI)
Several values for one entry are separate records, joined by “and”; a condition that tells them apart may be missing. Equal values may be shown once.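 Five concentrations, 48 hours, 96-well plates. The concentration for 50% growth inhibition is given as GI50. The concentration for full growth arrest is given as TGI.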

Legend:
Experiment in all cases: NCI-60 cell line screen, 48 h
OVCAR-8 ovarian = tested on: OVCAR-8 ovarian
SNB-75 CNS = tested on: SNB-75 CNS
UO-31 renal = tested on: UO-31 renal
U251 CNS = tested on: U251 CNS
OVCAR-3 ovarian = tested on: OVCAR-3 ovarian
NCI-H460 lung = tested on: NCI-H460 lung
SR leukemia = tested on: SR leukemia
M14 melanoma = tested on: M14 melanoma
CCRF-CEM leukemia = tested on: CCRF-CEM leukemia
HOP-92 NSCLC = tested on: HOP-92 NSCLC

| Structure (SMILES) | GI50 (OVCAR-8 ovarian) | TGI (OVCAR-8 ovarian) | GI50 (SNB-75 CNS) | TGI (SNB-75 CNS) | GI50 (UO-31 renal) | TGI (UO-31 renal) | GI50 (U251 CNS) | TGI (U251 CNS) | GI50 (OVCAR-3 ovarian) | TGI (OVCAR-3 ovarian) | GI50 (NCI-H460 lung) | TGI (NCI-H460 lung) | GI50 (SR leukemia) | TGI (SR leukemia) | GI50 (M14 melanoma) | TGI (M14 melanoma) | GI50 (CCRF-CEM leukemia) | TGI (CCRF-CEM leukemia) | GI50 (HOP-92 NSCLC) | TGI (HOP-92 NSCLC) |
| --- | --- | --- | --- | --- | --- | --- | --- | --- | --- | --- | --- | --- | --- | --- | --- | --- | --- | --- | --- | --- |
| Cc1cc(I)cc(CN(C)CCCN2CCN(C)CC2)c1O | 80.8 µM | > 100 µM | 31.5 µM | > 100 µM | 37.5 µM | > 100 µM | 30.9 µM | > 100 µM | > 64.5 µM | > 100 µM | 32.8 µM | > 100 µM | 20.1 µM | > 55.1 µM | 4.67 µM | 23.9 µM | 45.7 µM | > 100 µM | 37.9 µM | > 100 µM |
| CC#Cc1nc(Nc2cc(C)[nH]n2)c2ccccc2n1 | 5.05 µM | 37.3 µM | 1.48 µM | 15.4 µM | 7.6 µM and 2.42 µM | 14.5 µM | 11.3 µM | 27.4 µM | 3.38 µM | 12.1 µM | 4.53 µM | 20.3 µM | 5.07 µM | > 100 µM | 4.34 µM | 23.8 µM | 4.6 µM | > 100 µM | 3.55 µM | 21.1 µM |
| O=C(CCc1ccc(O)cc1)N/N=C/c1cc(Br)ccc1O | 3.7 µM | > 100 µM | 5.25 µM | > 100 µM | 1.34 µM | 7.19 µM | 3.2 µM | > 100 µM | 4.03 µM | 23.6 µM | 2.93 µM | 14.2 µM | 2.52 µM | 9.66 µM | 2.75 µM | 17.4 µM | 2.5 µM | 12.6 µM | 4.9 µM | 49.3 µM |
| CS(=O)(=O)N(c1cc(-c2ccc3ncnc(Nc4cccc(Cl)c4)c3c2)cnc1Cl)S(C)(=O)=O | 1.58 µM | > 100 µM | 0.0406 µM | 0.641 µM | 0.232 µM | 2.52 µM | 0.782 µM | 8.07 µM | 0.333 µM | 1.88 µM | 0.591 µM | > 100 µM | 0.696 µM | 6.68 µM | 0.598 µM | 4.4 µM | 0.52 µM | 89.3 µM | 0.158 µM | 0.891 µM |
| COc1ccc(Cn2cc3c(c2-c2cc(OC)c(OC)c(OC)c2)CCc2cnoc2-3)cc1 | 0.485 µM | > 100 µM | 0.147 µM | 0.746 µM | 0.542 µM | > 100 µM | 0.393 µM | > 100 µM | 0.189 µM | 0.484 µM | 0.332 µM | 1.88 µM | 0.175 µM | 1.42 µM | 0.216 µM | 0.87 µM | 0.291 µM | > 24.3 µM | > 21.4 µM | > 100 µM |
| O=C1C(Cl)=C(Nc2cccc(O)c2)C(=O)N1Cc1ccc(Cl)cc1Cl | 1.94 µM | 27.1 µM | 6.1 µM | 20.6 µM | 1.87 µM | 14.5 µM | 4.31 µM | 15.5 µM | 12.1 µM | 26.4 µM | 11.4 µM | 29.7 µM | 1.88 µM | 11.9 µM | 8.18 µM | 22.8 µM | 2.82 µM | 52.7 µM | 12.2 µM | 26.9 µM |
| Cn1cc(C2=C(N3CCOCC3)C(=O)NC2=O)c2ccccc21 | > 25 µM | > 25 µM | > 25 µM | > 25 µM | > 25 µM | > 25 µM | > 25 µM | > 25 µM | > 25 µM | > 25 µM | > 25 µM | > 25 µM | > 25 µM | > 25 µM | > 25 µM | > 25 µM | > 25 µM | > 25 µM | 14.7 µM | > 25 µM |
| CCCCCCCCCCCCCCCC1=NC(C)(C)CN1C(C)C | 1.72 µM | 3.58 µM | 1.47 µM | 2.94 µM | 1.44 µM | 2.84 µM | 1.51 µM | 2.84 µM | 0.824 µM | 2.09 µM | 1.73 µM | 3.11 µM | 0.254 µM | 1.36 µM | 1.57 µM | 2.91 µM | 1.41 µM | 3.47 µM | 1.1 µM | 3.45 µM |
| CCN(CC)C(=S)[S][Bi]([S]C(=S)N(CC)CC)[S]C(=S)N(CC)CC | 0.284 µM | 0.755 µM | 0.213 µM | 0.527 µM | 0.216 µM | 0.468 µM | 1.12 µM | 2.34 µM | 0.0525 µM | 0.174 µM | 1.44 µM | 3.07 µM | 0.0353 µM | 23.4 µM | 0.218 µM | 0.485 µM | 0.0193 µM |  | 0.136 µM | 0.276 µM |
| O=C(/C=C\c1ccccc1)N1CCc2ccccc2C1 |  | > 100 µM |  | > 100 µM |  | > 100 µM |  | > 100 µM |  |  |  | > 100 µM |  | 69.1 µM |  | > 100 µM |  | 91.3 µM |  | > 100 µM |
| Cc1cccc(Cc2cnc(NC(=O)CCc3ccc(C)o3)s2)c1 | 0.406 µM | > 100 µM | 0.165 µM | 5.67 µM | 0.589 µM | > 100 µM | 0.293 µM | > 100 µM | 0.192 µM | 0.731 µM | 0.263 µM | > 100 µM | 0.0543 µM | > 100 µM | 0.136 µM | > 41.4 µM | 0.234 µM | > 100 µM | 7.31 µM | 98.7 µM |
| COc1cccc2c1n([O-])c1cccc(OC)c1[n+]2=O | 4.51 µM | 35.8 µM |  |  | 6.7 µM | 32.7 µM | 10.4 µM | 48.2 µM | 17.6 µM | > 100 µM | 3.05 µM | 14.4 µM | 0.897 µM | 9.36 µM | 7.02 µM | 26.5 µM | 3.49 µM | 35.7 µM | 16.3 µM | > 100 µM |
| CN(C)CC/C(=N\Nc1ccc(Cl)cc1Cl)c1ccccc1 |  | 34.9 µM |  | 20.9 µM |  | 10.5 µM |  | 24.8 µM |  | 27 µM |  | 28.3 µM |  | 32.3 µM |  | 29.1 µM |  | 31.2 µM |  |  |
| Oc1ccc(Cc2cc(Cl)cc(Cl)c2O)cc1Cl |  | 36.3 µM |  |  |  | 31 µM |  | 36.2 µM |  | 36.6 µM |  | 32.4 µM |  | 47.2 µM |  | 34 µM |  |  |  | 33.9 µM |
